The test system of assay [1] is MDA-CDDP-S4 human Cisplatin-resistant breast adenocarcinoma cells. The assay can be described thus: MDA-CDDP-S4 Cisplatin-resistant breast adenocarcinoma, fat pad injection in SCID mice. The class given is in vivo. As to conditions: for Tumour weight as % of saline control: MDA-CDDP-S4 (breast), Cisplatin resistance, SCID. As for the experimental part:
MDA-CDDP-S4 human in vivo-selected Cisplatin-resistant breast adenocarcinoma cells (4×10^6 cells in 100 μl of PBS) were injected into the fat pad (inside of right leg) of 6-7 weeks old female SCID mice. After the size of tumour reached an approximate volume of 100 mm^3, 7 days post tumour cell injection, SEQ ID NO:1 was administered by bolus infusion into the tail vein every other day at 10 mg/kg 9 times. Control animals received saline alone for the same period. Antitumour effect of SEQ ID NO: 1 was further compared to that of Cisplatin or Taxol alone. Cisplatin was adminstered intravenously once a week for three weeks at a dose of 4 mg/kg. Taxol was administered intravenously once a week for three weeks at a dose of 10 mg/kg. Antitumour activities were estimated by the inhibition of tumour volume, which was measured with caliper. Each point represents mean tumour volume calculated from 10 animals per experimental group. […] As expected, treatment with Cisplatin during the same period was ineffective against Cisplatin-resistant tumour.
MDA-CDDP-S4 human in vivo-selected Cisplatin-resistant breast adenocarcinoma cells (4×10^6 cells in 100 μl of PBS) were injected into the fat pad (inside of right leg) of 6-7 weeks old female CB-17 SCID mice. After the size of tumour reached an approximate volume of 100 mm^3, 9 days post tumour cell injection, SEQ ID NO:1 was administered by bolus infusion into the tail vein every other day at 10 mg/kg. Control animals received saline alone for the same period. Antitumour effect of SEQ ID NO:1 was further compared to that of Taxol alone and in combination. Taxol was administered i.p. once a week at a dose of 10 mg/kg. Antitumour activities were estimated by the inhibition of tumour volume FIG. 22A), which was measured with calipers. Each point represents mean tumour volume calculated from 10 animals per experimental group. Animals were sacrificed and tumour weights taken at the end of the study (FIG. 22C). […] This study was repeated with similar results (FIG. 22B).

Assay [2] concerns Hela S3 human cervix epitheloid carcinoma cells. The assay can be described thus: Hela S3 hydroxyurea resistant cervix carcinoma xenograft in SCID mice. It is filed as in vivo. To be noted: Hela S3 (cervix), hydroxyurea resistance; SCID. As for the experimental part: Hela S3 human cervix epitheloid carcinoma cells (5×10^5 cells in 100 μl of PBS) were subcutaneously injected into the right flank of 6-7 weeks old female SCID mice. Hela S3 is a hydroxyurea resistant cell line. After the size of tumour reached an approximate volume of 100 mm^3, 3 days post tumour cell injection, SEQ ID NO:1 was administered by bolus infusion into the tail vein every other day at 10 mg/kg 6 times. Control animals received saline alone for the same period. Antitumour effect of SEQ ID NO:1 was further compared to that of Hydroxyurea or Cisplatin alone or in combination. Hydroxyurea was administered intraperitoneally every day at a dose of 250 mg/kg for 10 days. Cisplatin was administered intravenously once a week for three weeks at a dose of 4 mg/kg. Antitumour activities were estimated by the inhibition of tumour volume, which was measured with caliper. Each point represents mean tumour volume calculated from 10 animals per experimental group. […] As expected, treatment with Hydroxyurea during the same period was ineffective against Hydroxyurea-resistant tumour.

Assay [3] relates to MDA-MB435-To.1 human Taxol-resistant breast adenocarcinoma cells. Nature of the assay: MDA-MB435-To.1 Taxol-resistant breast adenocarcinoma, fat pad injection in SCID mice. To be noted: for Tumour weight as % of saline control: MDA-MB435-To.1 (breast), Taxol resistance. It is filed as in vivo. On the set-up: Tumour weight as % of saline control: concentration or dose not given beside the values. The procedure:
MDA-MB435-To.1 human Taxol-resistant breast adenocarcinoma cells (4×10^6 cells in […] of PBS) were injected into the fat pad (inside of right leg) of 6-7 weeks old female SCID mice. After the size of tumour reached an approximate volume of 100 mm^3, 20 days post tumour cell injection, SEQ ID NO:1 was administered by bolus infusion into the tail vein every other day at 10 mg/kg 15 times. Control animals received saline alone for the same period. Antitumour effect of SEQ ID NO:1 was further compared to that of Cisplatin or Taxol alone. Cisplatin was administered intravenously once a week for four weeks at a dose of 4 mg/kg. Taxol was administered intravenously once a week for four weeks at a dose of 20 mg/kg.
Antitumour activities were estimated by the inhibition of tumour volume, which was measured with caliper. Bach point represents mean tumour volume calculated from 9-10 animals per experimental group. […] As expected, treatment with Taxol during the same period was ineffective against Taxol-resistant tumour.
MDA-MB435-To.1 human Taxol-resistant breast adenocarcinoma cells (4×10^6 cells in 100 μl of PBS) were injected into the fat pad (inside of right leg) of 6-7 weeks old female CB-17 SCID mice. After the size of tumour reached an approximate volume of 100 mm^3, 17 days post tumour cell injection, SEQ ID NO:1 was administered by bolus infusion into the tail vein every other day at 10 mg/kg. Control animals received saline alone for the same period. Antitumour effect of SEQ ID NO:1 was compared to that of Cisplatin alone and in combination. Cisplatin was administered intravenously once a week for four weeks at a dose of 4 mg/kg. Antitumour activities were estimated by the inhibition of tumour volume, which was measured with caliper. Each point represents mean tumour volume calculated from 10 animals per experimental group. At the end of the study the animals were sacrificed and tumours weighed.

Assay [4] relates to SK-OV-3 human ovary adenocarcinoma cells. Nature of the assay: SK-OV-3 ovary tumour xenograft in CD-1 nude mice. The class given is in vivo. To be noted: SK-OV-3 (ovary); Mouse CD-1. As for the experimental part: SK-OV-3 human ovary adenocarcinoma cells (1×10^7 cells in 100 μl of PBS) were subcutaneously injected into the right flank of 6-7 weeks old female CD-1 nude mice. After the size of tumour reached an approximate volume of 100 mm^3, 6 days post tumour cell injection, SEQ ID NO:1 was administered by bolus infusion into the tail vein every other day at 10 mg/kg 17 times. Control animals received saline alone for the same period. Antitumour effect of SEQ ID NO: 1 was further compared to that of taxol or cisplatin alone or in combination. Taxol was administered intravenously once a week for first three weeks and intraperitoneally once a week for next two weeks at a dose of 10 mg/kg. Cisplatin was administered intravenously once a week for first three weeks and intraperitoneally once a week for next two weeks at a dose of 4 mg/kg. All treatments were stopped at day 40. Antitumour activities were estimated by the inhibition of tumour volume, which was measured with caliper. Each point represents mean tumour volume calculated from 9 animals per experimental group.

In assay [5] the test system is BxPC-3 human pancreatic carcinoma cells. The assay can be described thus: BxPC-3 gemcitabine resistant pancreatic carcinoma xenograft in CD-1 nude mice. The class given is in vivo. As for the experimental part: BxPC-3 human pancreatic carcinoma cells (3×10^6 cells in 100 μl of PBS) were subcutaneously injected into the right flank of 6-7 weeks old female CD-1 nude mice. BxPC-3 is a gemcitabine resistant call line. After the size of tumour reached an approximate volume of 100 mm^3, 21 days post tumour cell injection, SEQ ID NO:1 was administered by bolus infusion into the tail vein every other day at 10 mg/kg 17 times. Control animals received saline alone for the same period. Antitumour effect of SEQ ID NO:1 was further compared to that of Gemcitabine. Gemcitabine was administered intravenously every three days at a dose of 100 mg/kg. Antitumour activities were estimated by the inhibition of tumour volume, which was measured with caliper. Each point represents mean tumour volume calculated from 10 animals per experimental group. […] As expected, treatment with Gemcitabine during the same period was ineffective against Gemcitabine-resistant tumour (FIGS. 19A & B).

For the next assay, the system named is renal cell carcinoma. As to conditions: patients with renal cell carcinoma; cited from earlier work.
For assay [6], the system named is MDA-MB-231 human breast cancer cells. The assay can be described thus: MDA-MB-231 breast tumour xenograft in CD-1 nude mice. The class given is in vivo. As to conditions: MDA-MB-231 (breast); Mouse CD-1. As for the experimental part: MDA-MB-231 human breast cancer cells (1×10^7 cells in 100 μl of PBS) were subcutaneously injected into the right flank of 6-7 weeks old female CD-1 nude mice. After the size of tumour reached an approximate volume of 100 mm^3, 5 days post tumour cell injection, SEQ ID NO:1, or the scrambled control oligonucleotide (SEQ ID NO:3) were administered by bolus infusion into the tail vein every other day at 10 mg/kg. Control animals received saline alone for the same period. Antitumour effect of SEQ ID NO:1 was further compared to that of taxol or doxorubicin alone or in combination. Taxol was administered intravenously once a week at a dose of 10 mg/kg for three (FIG. 17A) or four weeks (FIG. 17C). Doxorubicin was administered intravenously once a week at a dose of 5 mg/kg for first three weeks (FIG. 17A) or for two weeks (FIG. 17C). All treatments were stopped at day 33 (FIG. 17A) or at day 26 (FIG. 17C), respectively. A day after the last treatment, tumours were excised from the animals and their weights were measured. […] In FIG. 17C, antitumour activities were estimated by the inhibition of tumour volume, which was measured with calipers. Each point represents mean tumour volume calculated from 10 animals per experimental group.

Assay [7] concerns Human taxol-resistant promyelocytic leukaemia cells (HL-60). The assay can be described thus: HL-60 taxol-resistant promyelocytic leukaemia xenograft in SCID mice. It is filed as in vivo. As for the experimental part: Human taxol-resistant promyelocytic leukaemia cells (HL-60) (7×10^6 cells in 100 μl of PBS) were injected into the right flank of 6-7 weeks old female SCID mice. After the size of tumour reached an approximate volume of 100 mm^3, 10 days post tumour cell injection, SEQ ID NO:1 was administered by bolus infusion into the tail vein every other day at 10 mg/kg. Control animals received saline alone for the same period. The anti-tumour effect of SEQ ID NO:1 was further compared to that of taxol. Taxol was administered i.p. once a week at a dose of 10 mg/kg. Anti-tumour activity was estimated by the inhibition of tumour volume, which was measured with caliper. Each point represents mean tumour volume calculated from 10 animals per experimental group. In addition animals were sacrificed and tumour weights taken at the end of the study.

Where [8] appears, read: study with Taxol and Cisplatin alone.

The source of these data is patent publication US20080311126A1, “Antisense Oligonucleotides Directed to Ribonucleotide Reducatase R2 and Uses Thereof in Combination Therapies for the Treatment of Cancer” (Genesense Technologies, Inc, priority 2004, published 2008).

Turning to `N.N.[Cl][Pt][Cl]` [Cisplatin, reference compound], in assay [1] (Example 13.3, SEQ ID NO:1 10 mg/kg 9 times, Cisplatin 4 mg/kg, Taxol 10 mg/kg i.v. weekly for three weeks), the “antitumour effect (tumour volume)” value was “ineffective”. Besides, the “Tumour weight as % of saline control” value in assay [1] (setting [8]) amounted to 78%; in assay [2] it was 63%; in assay [3] (CB-17/SCID), 56%; in assay [3] (SCID), 69%. For the same compound, the “tumour volume data as percentage of saline control” value in assay [4] stood at 67%.
As for `Nc1ccn([C@@H]2O[C@H](CO)[C@@H](O)C2(F)F)c(=O)n1` [Gemcitabine, reference compound], in assay [5] (BxPC-3 (pancreatic), Gemcitabine resistance, CD-1), the “Tumour weight as % of saline control” value was 83%. In assay [5] (SEQ ID NO:1 10 mg/kg 17 times i.v., Gemcitabine 100 mg/kg i.v. every three days), the “antitumour effect (tumour volume)” value is listed as “ineffective”.
Consider `CC(=O)O[C@]1(C(C)=O)CC[C@H]2[C@@H]3C[C@H](C)C4=CC(=O)CC[C@]4(C)[C@H]3CC[C@@]21C` [MPA, medroxyprogesterone acetate, reference compound], for which the 1-year survival in the assay on renal cell carcinoma is 31%.
With `CC(=O)O[C@H]1C(=O)[C@@]2(C)[C@H]([C@H](OC(=O)c3ccccc3)[C@]3(O)C[C@H](OC(=O)[C@H](O)[C@@H](NC(=O)c4ccccc4)c4ccccc4)C(C)=C1C3(C)C)[C@]1(OC(C)=O)CO[C@@H]1C[C@@H]2O` [Taxol, Paclitaxel, reference compound], the “Tumour weight as % of saline control” value came to 58% in assay [6]; 26% in assay [1] (Taxol combination study, first of two value columns); 61% in assay [1] (Taxol combination study, second of two value columns); 32% in assay [1] (setting [8]); 119% in assay [7] (HL-60 (leukemia), Taxol resistance, SCID); 109% in assay [3] (SCID). For the same compound, the “anti-tumour effect (tumour volume, tumour weight)” value in assay [7] (SEQ ID NO:1 10 mg/kg every other day, Taxol 10 mg/kg i.p. weekly) is given as “no effect on tumour growth or weight”. For the same compound, the “antitumour effect (tumour volume)” value in assay [3] (Example 13.5, SEQ ID NO:1 10 mg/kg 15 times, Cisplatin 4 mg/kg, Taxol 20 mg/kg i.v. weekly for four weeks) was “ineffective”. The “tumour volume data as percentage of saline control” value in assay [4] is on record as 49%.
